The target of experiment [1] is T1, human 5-LOX (Homo sapiens, UniProt P09917).
T1 construct: purchased Cayman 60402; host or cells: insect cells (lysate)
T1 sequence (P09917 1-674): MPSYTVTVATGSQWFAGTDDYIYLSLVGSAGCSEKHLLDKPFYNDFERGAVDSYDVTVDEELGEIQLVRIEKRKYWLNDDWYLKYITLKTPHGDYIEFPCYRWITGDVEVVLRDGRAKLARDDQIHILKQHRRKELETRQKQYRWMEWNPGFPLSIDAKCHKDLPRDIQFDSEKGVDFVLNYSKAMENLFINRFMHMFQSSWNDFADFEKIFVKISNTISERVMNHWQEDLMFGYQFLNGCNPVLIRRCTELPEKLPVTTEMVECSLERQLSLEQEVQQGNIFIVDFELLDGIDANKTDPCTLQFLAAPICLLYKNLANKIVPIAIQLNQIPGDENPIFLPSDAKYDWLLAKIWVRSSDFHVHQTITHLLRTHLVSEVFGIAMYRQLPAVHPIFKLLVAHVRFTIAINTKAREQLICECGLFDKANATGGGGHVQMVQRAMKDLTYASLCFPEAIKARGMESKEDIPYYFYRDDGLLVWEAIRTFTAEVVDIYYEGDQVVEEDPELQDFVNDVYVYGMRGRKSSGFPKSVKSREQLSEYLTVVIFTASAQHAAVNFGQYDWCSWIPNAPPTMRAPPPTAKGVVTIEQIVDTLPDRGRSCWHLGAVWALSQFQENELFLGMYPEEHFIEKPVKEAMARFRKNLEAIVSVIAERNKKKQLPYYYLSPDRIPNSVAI
The experiment is described as follows: 5-LOX enzyme activity, fluorescence method (5-HPETE, H2DCFDA). The format is biochemical. The note with it: read-out: 5-LO (IC50). In short, it runs like this:
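Fluorescence-based read-out, run entirely at room temperature. Enzyme mixture was exposed to a dose range of compound from 0.5 nM to 10 uM for 5 min before ATP and arachidonic acid were added to final levels of 100 uM and 3 uM.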

Experiment [2] deals with Rat whole blood (RWB). The experiment is described as follows: LTB4 secretion assay in RWB (rat whole blood). The class given is cell-based. As to conditions: Rattus norvegicus. As to the method:
Rat blood was drawn from caudal vena cava from male Sprague Dawley rat (6-9 weeks old) in vacuette coated with sodium heparin (Greiner bio-one, Cat #455051). The blood was pooled and diluted with RPMI (WelGENE, Cat #LM 011-05) to 1:1. The diluted blood was aliquoted into 96 well plate (200 ul per well) and compounds were added in dose response to a desired concentration ranging from 2.5 nM to 50 uM. After 15 min of pre-incubation at 37° C., calcium ionophore (A23187) was added to the final concentration of 10 uM. After 10 min of further incubation at 37° C., the LTB4 production was stopped by diluting the reaction mixture with ice cold PBS (1:4 dilutions). Cells were removed by centrifugation at 1000×g, 4° C. for 10 min, and the supernatant was transferred and then the quantification of LTB4 was done with Leukotriene B4 EIA kit (Cayman, Cat #520111) as instructed.

Experiment [3] relates to Rat basophilic leukemia (RBL) cells. Nature of the experiment: LTB4 secretion assay in RBL (rat basophilic leukemia cells). The format is cell-based. In short, it runs like this: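 LTB4 released into supernatant was measured by EIA after 10 min at 37 °C with arachidonic acid (2.5 uM final) and calcium ionophore A23187 (5 uM final). Before stimulation, cells plated 2×10^4/well overnight received compound doses (5 nM to 100 uM) for 15 min in 0.5% FBS medium.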

Structures are written as SMILES. Like-named read-outs stand apart in the source and are kept apart here. A value given as a limit tells only on which side of the number the result lay.

44 molecules from patent publication US11447486B2, “2-amino-benzimidazole derivatives and their use as 5-lipoxygenase and/or prostaglandin E synthase inhibitors” (INSTITUT PASTEUR KOREA, priority 2014, dated 2022) can be followed below.

As a reminder, the IC50 is the midpoint of a concentration-inhibition curve. One may read the EC50 as the concentration at which the effect is half-maximal. Lower therefore signals a more potent agent. Take `Nc1ccc2[nH]c(NCc3ccc4oc(-c5ccc(OC(F)(F)F)cc5)nc4c3)nc2c1` [Compound 1]: in experiment [1], the IC50 is < 1 µM. Moreover, the EC50 in experiment [2] is > 20 µM.
Turning to `Cn1c(NCc2ccc(Oc3ncc4c(Cl)cccc4n3)cc2)nc2ccc(NC3COC3)cc21` [Compound 435], in experiment [1], the IC50 is < 1 µM. Besides, the EC50 in experiment [3] (Rattus norvegicus, RBL) is < 10 µM.
The matching figures for `Cn1c(NCc2ccc(Oc3ncc4cccc(Cl)c4n3)cc2)nc2ccc(N)cc21` [Compound 436]: < 1 µM and < 10 µM.
The matching figures for `Cn1c(NCc2ccc(Oc3ncc4cccc(Cl)c4n3)cc2)nc2ccc(NC3COC3)cc21` [Compound 437]: < 1 µM and < 10 µM.
On the same counts, the results for `Cn1c(NCc2ccc(Oc3nccc4cc(Cl)ccc34)cc2)nc2ccc(N)cc21` [Compound 438] are < 1 µM and 10 to 20 µM.
Turning to `Cn1c(NCc2ccc(Oc3nccc4cc(Cl)ccc34)cc2)nc2ccc(NC3COC3)cc21` [Compound 439], the IC50 in experiment [1] is < 1 µM. In experiment [3] (Rattus norvegicus, RBL), this molecule yielded an EC50 of 10 to 20 µM.
`Cn1c(NCc2ccc(Oc3ncc4ccc(Cl)cc4n3)cc2)nc2ccc(N)cc21` [Compound 440]: the IC50 in experiment [1] was < 1 µM. Further, the EC50 in experiment [3] (Rattus norvegicus, RBL) is < 10 µM.
The matching figures for `Cn1c(NCc2ccc(Oc3ncc(Cl)cn3)cc2)nc2ccc(NC(=N)N)cc21` [Compound 441]: > 10 µM and > 20 µM.
On the same counts, the results for `Cn1c(NCc2ccc(Oc3cn4ccc(Cl)cc4n3)cc2)nc2ccc(N)cc21` [Compound 442] are < 1 µM and < 10 µM.
The matching figures for `Cn1c(NCc2ccc(Oc3ncc(Cl)cn3)cc2)nc2ccc(NC3CN(C(=N)N)C3)cc21` [Compound 443]: < 1 µM and > 20 µM.
For the molecule `Cn1c(NCc2ccc(Oc3ncc4ccc(Cl)cc4n3)cc2)nc2ccc(NC3COC3)cc21` [Compound 444], the IC50 in experiment [1] was < 1 µM. This molecule also had an EC50 in experiment [3] (Rattus norvegicus, RBL) of 10 to 20 µM.
The matching figures for `Cn1c(NCc2ccc(-n3ccc4cc(Cl)cnc43)cc2)nc2ccc(N)cc21` [Compound 445]: < 1 µM and < 10 µM.
On the same counts, the results for `Cn1c(NCc2ccc(-n3ccc4cc(Cl)cnc43)cc2)nc2ccc(NC3COC3)cc21` [Compound 446] are < 1 µM and < 10 µM.
The matching figures for `Cn1c(NCc2ccc3c(ccn3-c3ccc(Cl)cn3)c2)nc2ccc(N)cc21` [Compound 451]: < 1 µM and < 10 µM.
For the molecule `CCC(Nc1nc2ccc(N)cc2n1C)c1ccc(Oc2ncc(Cl)cn2)cc1` (stereo not shown) [Compound 452], the IC50 in experiment [1] is < 1 µM. For the same molecule, the EC50 in experiment [3] (Rattus norvegicus, RBL) was < 10 µM.
As for `CCC(Nc1nc2ccc(NC3COC3)cc2n1C)c1ccc(Oc2ncc(Cl)cn2)cc1` (stereo not shown) [Compound 453], the IC50 in experiment [1] is < 1 µM. Besides, the EC50 in experiment [3] (Rattus norvegicus, RBL) is < 10 µM.
On the same counts, the results for `COc1nc(Oc2ccc(CNc3nc4ccc(N)cc4n3C)cc2)ncc1Cl` [Compound 454] are < 1 µM and 10 to 20 µM.
The matching figures for `Cn1c(NCc2ccc(Oc3cn4ccc(Cl)cc4n3)cc2)nc2ccc(NC3COC3)cc21` [Compound 455]: < 1 µM and < 10 µM.
On the same counts, the results for `CN(C)C(=O)c1cnc(Oc2ccc(CNc3nc4ccc(N)cc4n3C)cc2)nc1` [Compound 456] are < 1 µM and > 20 µM.
Take `Cn1c(NCc2ccc3c(ccn3-c3ccc(Cl)cn3)c2)nc2ccc(NC3COC3)cc21` [Compound 457]: the 50% inhibitory concentration (IC50) in experiment [1] is < 1 µM. For the same molecule, the EC50 in experiment [3] (Rattus norvegicus, RBL) was < 10 µM.
`Cn1c(NCc2ccc(Nc3ncc(Cl)cn3)cc2)nc2ccc(N)cc21` [Compound 458]: in experiment [1], the IC50 was < 1 µM. Besides, in experiment [3] (Rattus norvegicus, RBL), the EC50 is < 10 µM.
The matching figures for `Cn1c(NCc2ccc(Oc3ncc(-c4ccc(Cl)cc4)cn3)cc2)nc2ccc(N)cc21` [Compound 460]: < 1 µM and < 10 µM.
On the same counts, the results for `CNC(=O)c1cnc(Oc2ccc(CNc3nc4ccc(N)cc4n3C)cc2)nc1` [Compound 462] are < 1 µM and > 20 µM.
On the same counts, the results for `CN(c1ccc(CNc2nc3ccc(N)cc3n2C)cc1)c1ncc(Cl)cn1` [Compound 463] are < 1 µM and < 10 µM.
In the case of `Cc1cc(Nc2ccc3nc(NCc4ccc(Oc5ncc(-c6ccc(Cl)cc6)cn5)cc4)n(C)c3c2)n[nH]1` [Compound 467], in experiment [1], the IC50 is < 1 µM. Moreover, in experiment [3] (Rattus norvegicus, RBL), the EC50 was < 10 µM.
On the same counts, the results for `Cn1c(NC2(c3ccc(Oc4ncc(Cl)cn4)cc3)CC2)nc2ccc(N)cc21` [Compound 472] are 1 to 10 µM and < 10 µM.
As for `Cc1cc(Nc2ccc3nc(NC4(c5ccc(Oc6ncc(Cl)cn6)cc5)CC4)n(C)c3c2)n[nH]1` [Compound 478], the IC50 in experiment [1] was < 1 µM. The EC50 in experiment [3] (Rattus norvegicus, RBL) is < 10 µM.
On the same counts, the results for `Cn1ccc(Nc2ccc3nc(NCc4ccc(Oc5ncc(Cl)cn5)cc4)[nH]c3c2F)n1` [Compound 480] are < 1 µM and < 10 µM.
The matching figures for `Cn1c(NCc2ccc(Oc3ncc(Cl)cn3)cc2)nc2ccc(Nc3n[nH]cc3C(=O)NC3CC3)cc21` [Compound 483]: < 1 µM and > 20 µM.
`Cc1cc(Nc2ccc3nc(NCc4ccc(Oc5ncc(Cl)cn5)cc4)[nH]c3c2)n[nH]1` [Compound 484]: the IC50 in experiment [1] was < 1 µM. For the same molecule, the EC50 in experiment [3] is > 20 µM.
In the case of `Cc1cc(Nc2ccc3nc(NCc4ccc(Oc5ncc(Cl)cn5)cc4)[nH]c3c2)n[nH]1` [Compound 485], the IC50 in experiment [1] is < 1 µM. Further, the EC50 in experiment [3] (Rattus norvegicus, RBL) lay in the range of 10 to 20 µM.
Take `Cn1c(NCc2ccc(Oc3ncc(Cl)cn3)cc2)nc2ccc(Nc3n[nH]cc3C(N)=O)cc21` [Compound 488]: the IC50 in experiment [1] lay within 1 to 10 µM. In addition, the EC50 in experiment [3] (Rattus norvegicus, RBL) is > 20 µM.
The matching figures for `Cc1cc(Nc2ccc3nc(NCc4ccc(Oc5ncc(Cl)cn5)cc4)n(C)c3n2)n[nH]1` [Compound 500]: 1 to 10 µM and 10 to 20 µM.
Consider `CCn1c(NCc2ccc(Oc3ncc(Cl)cn3)cc2)nc2ccc(Nc3cc(C(F)(F)F)n(C)n3)cc21` [Compound 510], for which the IC50 in experiment [1] is > 10 µM. Further, the EC50 in experiment [3] is < 10 µM.
Take `CCn1c(NCc2ccc(Oc3ccc(Cl)cn3)cc2)nc2ccc(Nc3cc(C(F)(F)F)n(C)n3)cc21` [Compound 511]: the IC50 in experiment [1] is > 10 µM. The EC50 in experiment [3] (Rattus norvegicus, RBL) was < 10 µM.
Turning to `CCn1c(NCc2ccc(Oc3cnc(Cl)cn3)cc2)nc2ccc(Nc3n[nH]c(C)c3Cl)cc21` [Compound 515], the IC50 in experiment [1] is > 10 µM. Also, in experiment [3] (Rattus norvegicus, RBL), the EC50 was < 10 µM.
The matching figures for `CCC(Nc1nc2ccc(Nc3cc(C(F)(F)F)n(C)n3)cc2n1C)c1ccc(Oc2ncc(C(F)(F)F)cn2)cc1` (stereo not shown) [Compound 520]: > 10 µM and < 10 µM.
Take `CCn1c(NCc2ccc(Oc3ncc(C(F)(F)F)cn3)cc2)nc2ccc(Nc3cc(C(F)(F)F)n(C)n3)cc21` [Compound 521]: the IC50 in experiment [1] was 1 to 10 µM. The EC50 in experiment [3] (Rattus norvegicus, RBL) is < 10 µM.
On the same counts, the results for `CCC(Nc1nc2ccc(Nc3cc(C(F)(F)F)n(C)n3)cc2n1C)c1ccc(Oc2cnc(C(F)(F)F)cn2)cc1` (stereo not shown) [Compound 522] are > 10 µM and < 10 µM.
For the molecule `Cn1nc(CF)cc1Nc1ccc2nc(NCc3ccc(Oc4ncc(Cl)cn4)cc3)n(C)c2c1` [Compound 539], the IC50 in experiment [1] is < 1 µM. Moreover, the EC50 in experiment [3] (Rattus norvegicus, RBL) was < 10 µM.
On the same counts, the results for `CCn1c(NCc2ccc(Oc3ncc(C(F)(F)F)cn3)cc2)nc2ccc(NC3COC3)cc21` [Compound 548] are < 1 µM and < 10 µM.
On the same counts, the results for `CCC(Nc1nc2ccc(NC3COC3)cc2n1C)c1ccc(Oc2ccc(C(F)(F)F)cn2)cc1` (stereo not shown) [Compound 549] are < 1 µM and < 10 µM.
The matching figures for `Cn1c(NCc2ccc(Oc3ncc(C(F)(F)F)cn3)cc2)nc2c(F)cc(NC3COC3)cc21` [Compound 551]: < 1 µM and < 10 µM.
In the case of `Cc1cc(Nc2cc(Cl)c3nc(NCc4ccc(Oc5ncc(Cl)cn5)cc4)n(C)c3c2)n[nH]1` [Compound 556], the IC50 in experiment [1] was < 1 µM. Further, in experiment [3] (Rattus norvegicus, RBL), the EC50 was < 10 µM.
